# Assay results taken from ChEMBL document CHEMBL1136697, “3D-QSAR studies on thieno[3,2-d]pyrimidines as phosphodiesterase IV inhibitors” (Bioorg Med Chem Lett, 2003).
# Target: Phosphodiesterase 4 (Cavia porcellus)
# Experiment: Inhibitory activity against (PDE IV) phosphodiesterase IV in guinea pig articular tissue
row,Compound,IC50
1,c1ccc(CNc2nc(CN3CCCCC3)nc3ccsc23)cc1,65 µM
2,c1ccc(CNc2nc(CCCCOc3ccccc3)nc3ccsc23)cc1,4.7 µM
3,CCCCc1nc(NCc2ccccc2)c2occc2n1,1.1 µM
